From ChEMBL document CHEMBL1128290, “Opioid receptor binding requirements for the delta-selective peptide deltorphin. I: Phe3 replacement with ring-substituted and heterocyclic amino acids” (J Med Chem, 1995) come the findings set out here.

Square brackets hold non-standard residues; d marks the D form. Peptide text beside a SMILES is read from it. Ala(4-thiazolyl) = N[C@@H](Cc1cscn1)C(=O)O; 2Pal = N[C@@H](Cc1ccccn1)C(=O)O; 3Pal = N[C@@H](Cc1cccnc1)C(=O)O; 2Thi = N[C@@H](Cc1cccs1)C(=O)O Some results are limits rather than exact numbers.

For orientation: Ki means a measure of affinity in units of concentration, obtained from inhibition or displacement. Read a low Ki as higher affinity.

Experiment [1] addresses Mu-type opioid receptor (Cavia porcellus, UniProt P97266). The experiment is described as follows: Inhibition of [3H]DAMGO binding to Opioid receptor mu 1 of guinea pig brain.
The target in experiment [2] is Kappa-type opioid receptor (Cavia porcellus, UniProt P41144). The experiment is described as follows: Inhibition of [3H]- U 69593 from Opioid receptor kappa 1 of guinea pig brain.
Kappa-type opioid receptor, sequence (P41144 whole entry): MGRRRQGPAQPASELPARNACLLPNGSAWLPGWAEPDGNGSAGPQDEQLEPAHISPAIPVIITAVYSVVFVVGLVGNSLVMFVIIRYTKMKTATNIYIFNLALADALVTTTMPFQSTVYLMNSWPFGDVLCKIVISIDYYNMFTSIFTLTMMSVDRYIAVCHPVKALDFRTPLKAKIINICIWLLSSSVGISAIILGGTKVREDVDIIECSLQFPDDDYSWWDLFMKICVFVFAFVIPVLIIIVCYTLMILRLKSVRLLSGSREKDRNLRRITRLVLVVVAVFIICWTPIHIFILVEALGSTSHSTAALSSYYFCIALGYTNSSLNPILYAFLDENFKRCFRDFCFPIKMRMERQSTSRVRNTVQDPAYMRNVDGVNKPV

Mu-type opioid receptor, sequence (P97266 whole entry): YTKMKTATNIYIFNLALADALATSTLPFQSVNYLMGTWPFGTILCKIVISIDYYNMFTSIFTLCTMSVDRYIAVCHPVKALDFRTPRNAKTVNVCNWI

Turning to `CC(C)[C@H](NC(=O)[C@H](CC(=O)O)NC(=O)[C@H](Cc1cscn1)NC(=O)[C@H](C)NC(=O)[C@@H](N)Cc1ccc(O)cc1)C(=O)N[C@H](C(=O)NCC(N)=O)C(C)C` (H-YA[Ala(4-thiazolyl)]DVVG-NH2), the results for the Ki in experiment [1] and in experiment [2] were 2.8 µM and > 10 µM, respectively.

Take `CC(C)[C@H](NC(=O)[C@H](CC(=O)O)NC(=O)[C@H](Cc1cccnc1)NC(=O)[C@H](C)NC(=O)[C@@H](N)Cc1ccc(O)cc1)C(=O)N[C@H](C(=O)NCC(N)=O)C(C)C` (H-YA[3Pal]DVVG-NH2): the Ki was 10 µM in experiment [1] and > 10 µM in experiment [2].

In the case of `CC(C)[C@H](NC(=O)[C@H](CC(=O)O)NC(=O)[C@H](Cc1ccccn1)NC(=O)[C@H](C)NC(=O)[C@@H](N)Cc1ccc(O)cc1)C(=O)N[C@H](C(=O)NCC(N)=O)C(C)C` (H-YA[2Pal]DVVG-NH2), the Ki is 2.93 µM in experiment [1] and > 10 µM in experiment [2].

Consider `CC(NC(=O)[C@@H](N)Cc1ccc(O)cc1)C(=O)N[C@@H](Cc1ccccc1)C(=O)N[C@@H](CC(=O)O)C(=O)N[C@H](C(=O)N[C@H](C(=O)NCC(N)=O)C(C)C)C(C)C` (single isomer, unassigned) [DELTORPHIN C], for which the figures for the Ki in experiment [1] and in experiment [2] were 0.677 µM and > 10 µM, respectively.

In the case of `CC(C)[C@H](NC(=O)[C@H](CC(=O)O)NC(=O)[C@H](Cc1ccc(F)cc1)NC(=O)[C@H](C)NC(=O)[C@@H](N)Cc1ccc(O)cc1)C(=O)N[C@H](C(=O)NCC(N)=O)C(C)C`, the Ki in experiment [1] is 10 µM; in experiment [2], > 10 µM.

As for `Cc1c(C)c(C)c(C[C@H](NC(=O)[C@H](C)NC(=O)[C@@H](N)Cc2ccc(O)cc2)C(=O)N[C@@H](CC(=O)O)C(=O)N[C@H](C(=O)N[C@H](C(=O)NCC(N)=O)C(C)C)C(C)C)c(C)c1C` (stereo in doubt; 5a), the inhibition constant (Ki) in experiment [1] and in experiment [2] was > 10 µM each time.

For the compound `CC(C)[C@H](NC(=O)[C@H](CC(=O)O)NC(=O)[C@H](Cc1cccc(F)c1)NC(=O)[C@H](C)NC(=O)[C@@H](N)Cc1ccc(O)cc1)C(=O)N[C@H](C(=O)NCC(N)=O)C(C)C` (stereo in doubt; 2b), the inhibition constant Ki in experiment [1] was 3.48 µM; in experiment [2] it was > 10 µM.

In the case of `Cc1c(C)c(C)c(C[C@H](NC(=O)[C@H](C)NC(=O)[C@@H](N)Cc2ccc(O)cc2)C(=O)N[C@@H](CC(=O)O)C(=O)N[C@H](C(=O)N[C@H](C(=O)NCC(N)=O)C(C)C)C(C)C)c(C)c1C` (stereo in doubt; 5b), the Ki in experiment [1] and in experiment [2] was > 10 µM throughout.

Take H-YAHDVVG-NH2: the Ki in experiment [1] and in experiment [2] was > 10 µM each time.

Take `CC(C)[C@H](NC(=O)[C@H](CC(=O)O)NC(=O)[C@H](Cc1c(F)c(F)c(F)c(F)c1F)NC(=O)[C@H](C)NC(=O)[C@@H](N)Cc1ccc(O)cc1)C(=O)N[C@H](C(=O)NCC(N)=O)C(C)C`: the Ki in experiment [1] and in experiment [2] was > 10 µM throughout.

Consider `Cc1ccc(C[C@H](NC(=O)[C@H](C)NC(=O)[C@@H](N)Cc2ccc(O)cc2)C(=O)N[C@@H](CC(=O)O)C(=O)N[C@H](C(=O)N[C@H](C(=O)NCC(N)=O)C(C)C)C(C)C)cc1`, for which the Ki in experiment [1] and in experiment [2] was > 10 µM throughout.

On to `CC(C)[C@H](NC(=O)[C@H](CC(=O)O)NC(=O)[C@H](Cc1cccs1)NC(=O)[C@H](C)NC(=O)[C@@H](N)Cc1ccc(O)cc1)C(=O)N[C@H](C(=O)NCC(N)=O)C(C)C` (H-YA[2Thi]DVVG-NH2), for which the Ki in experiment [1] is 0.419 µM; in experiment [2], > 10 µM.

Consider `CC(C)[C@H](NC(=O)[C@H](CC(=O)O)NC(=O)[C@H](Cc1cccc(F)c1)NC(=O)[C@H](C)NC(=O)[C@@H](N)Cc1ccc(O)cc1)C(=O)N[C@H](C(=O)NCC(N)=O)C(C)C` (stereo in doubt; 2a), for which the values for the Ki in experiment [1] and in experiment [2] were 0.411 µM and > 10 µM, respectively.
